# Test results published in patent US20150175666A1, “PEPTIDES DERIVED FROM HIV GP41 FOR TREATING T-CELL MEDIATED PATHOLOGIES” (Yeda Research and Development Co. Ltd., priority 2012, published 2015).
# Legend:
# [1] = In vivo toxicity in naïve mice; parameters: species or system C57BL mice; conditions: 50 mg/kg i.v., n=3
# Protocol: First, the toxicity of the peptide was investigated by injecting naïve C57BL mice i.v. with 50 mg/kg of the peptides. […] Then, C57Bl/6J mice that were induced to develop clinical EAE by immunization with MOG35-55/CFA were given a dose of the peptide that was 100-fold less than the one examined in the toxicity assay, i.e. 10 μg per mouse (0.5 mg/kg), or PBS as a control. On day 10 post immunization, prior to the onset of clinical signs of EAE, the lymph node cells (LNCs) from each treatment group were cultured for 72 h in microtiter wells in triplicate (0.5×10^6/well) in the absence or presence of MOG35-55 (2.5 or 5 μg/ml; SEQ ID NO: 15). [H3] Thymidine was added for the last 18 h. The LNCs were analyzed ex vivo for their recall proliferative response to the immunizing MOG35-55 peptide and for secretion of pro-inflammatory cytokines.
# [2] = tested on: human red blood cells (RBCs); assay: Hemolysis of human red blood cells; type: cell-based; conditions: up to 100-fold IC50, maximal concentration examined (100 μM, 1 hr)
# Protocol: Fresh human red blood cells (RBCs) were rinsed two times with PBS, followed by centrifugation for 7 min at 2000 rpm and resuspension in PBS. Peptides, at various concentrations, were dissolved in PBS and added to 50 μl of the stock hemolysis of human red blood cell (hRBC) solution in PBS for a final volume of 100 μl (final erythrocyte concentration, 4% (v/v)). The resulting suspension was incubated with agitation for 60 min at 37° C. The samples were then centrifuged at 2000 rpm for 7 min. The release of hemoglobin was monitored by measuring the absorbance of the supernatant at 540 nm. Controls for zero hemolysis (blank) and 100% hemolysis consisted of hRBCs suspended in PBS and PBS with 1% Triton, respectively.
# Hemolysis of red blood cells (RBCs) is often used to detect membranolytic activity of peptides. Hemolytic activity was measured by the release of hemoglobin into the media (OD 540 nm). Triton (1% v/v) served as a control for a hemolytic agent. Importantly, the peptide was not hemolytic up to 100-fold more than the IC50 of the peptide, the maximal concentration examined (FIG. 3H).
# [3] = tested on: T cells (Jurkat T cells, MOG35-55-specific T cells); assay: XTT cytotoxicity assay; type: cell-based, human and murine; conditions: up to maximal concentration examined (20 μM, FIG. 3G)
# Protocol: Aliquots of 2.5×10^4 of the cells (from Jurkat E6-1, T-cell line) were distributed onto a 96-well plate (Falcon) in the presence of various peptide concentrations and incubated for 24 h. Wells in the last two columns served as blank (medium only), and 100% survival controls (cells and medium only), respectively. After incubation, the XTT reaction solution benzene sulfonic acid hydrate and N-methyl dibenzopyrazine methyl sulfate, mixed in a proportion of 50:1, was added for 2 more hr. Optical density was read at a 450-nm wavelength in an enzyme-linked immunoabsorbent assay plate reader. LC50 (the concentration at which 50% of the cells die) was determined relative to the control, 2.5×10^4 cells in medium. All assays were performed in duplicate.
# The viability of the cells was analyzed by an XTT cytotoxicity assay. The peptide was not toxic to T cells up to 20-fold more than the IC50 of the peptide, the maximal concentration examined (FIG. 3G).
compound,measurement,setting,value
"CC[C@H](C)[C@H](NC(=O)[C@H](CCC(N)=O)NC(=O)[C@H](CCC(=O)O)NC(=O)[C@H](CC(C)C)NC(=O)[C@H](CO)NC(=O)[C@H](CCCCN)NC(=O)[C@H](CC(N)=O)NC(=O)[C@@H](N)CO)C(=O)N[C@@H](Cc1c[nH]c2ccccc12)C(=O)N[C@@H](CC(N)=O)C(=O)N[C@@H](Cc1c[nH]cn1)C(=O)N[C@H](C(=O)N[C@H](C(=O)N[C@@H](Cc1c[nH]c2ccccc12)C(=O)N[C@@H](CCSC)C(=O)N[C@@H](CCC(=O)O)C(=O)N[C@@H](Cc1c[nH]c2ccccc12)C(=O)N[C@@H](CC(=O)O)C(N)=O)[C@@H](C)O)[C@@H](C)O [PEP 6, SNKSLEQIWNHTTWMEWD]",toxic effect in mice,[1],No toxic effect
same,hemolytic activity,[2],not hemolytic
same,toxicity to T cells (viability),[3],not toxic
